Measurements taken from patent US20150176022A1, “HERBICIDE-RESISTANT SUNFLOWER PLANTS, POLYNUCLEOTIDES ENCODING HERBICIDE=RESISTANT ACETO HYDROXY ACID SYNTHASE LARGE SUBUNIT PROTEINS, AND METHODS OF USE” (priority 2013, published 2015).

Tests used:
[1] = system: Clearfield-Sunflower variety A; assay: Greenhouse spray test, injury rating (Example 5); type: in vivo, Helianthus annuus; conditions: 14 DAT, scale 0=no injury to 9=dead plant
Description: (§1) Sunflower lines S4897, Clearfield® sunflower varieties A, B, C and a conventional non-Clearfield variety were sprayed with three rates of imazamox (Raptor™), 100, 200 and 300 gm ai/ha plus 0.5% Sun It II and two rates of imazapyr (Arsenal™) 160 and 360 gm ai/ha plus 0.5% Sun It II when the plants were at the two to three leaf stage. Ratings were taken at 14 days after application (DAT) for injury. Injury was rated on a scale from 0 to 9 where 0=no injury to 9=dead plant. Twelve plants were sprayed per herbicide/rate treatment. Statistical analysis was conducted with STATGRAPHICS Plus 5.0 by using ANOVA and LSD procedures.
(§2) After plants were sprayed, it was realized that a height difference between S4897 and other sunflower varieties would have impacted the actual herbicide dose that was delivered. The spray boom height had been calibrated against S4897 and since the other varieties were taller and closer to the boom they would have received a greater dose of herbicide. Rates were recalibrated for the other varieties to determine the approximate dose they would have received. Assessments were made as presented in Table 2 since it was not possible to make a direct rate comparison due to the effect of the height. For example injury scores were compare for S4897 treated imazamox rate 100 gm ai/ha to the other varieties treated at 75 gm ai/ha. The treatment dose of 300 gm ai/ha for line S4897 was equivalent to the treatment of 200 gm ai/ha for the other varieties, which […].

[2] = system: Clearfield-Sunflower variety B; assay: Greenhouse spray test, injury rating (Example 5); type: in vivo, Helianthus annuus; conditions: 14 DAT, scale 0=no injury to 9=dead plant
Description: as §1, §2

[3] = system: Clearfield-Sunflower variety C; assay: Greenhouse spray test, injury rating (Example 5); type: in vivo, Helianthus annuus; conditions: 14 DAT, scale 0=no injury to 9=dead plant
Description: as §1, §2

[4] = system: Conventional non-Clearfield sunflower variety; assay: Greenhouse spray test, injury rating (Example 5); type: in vivo, Helianthus annuus; conditions: 14 DAT, scale 0=no injury to 9=dead plant
Description: as §1, §2

[5] = system: Sunflower line S4897; assay: Greenhouse spray test, injury rating (Example 5); type: in vivo, Helianthus annuus; conditions: 14 DAT, scale 0=no injury to 9=dead plant
Description: as §1, §2

[6] = system: AHAS; assay: AHAS activity analysis, inhibition by herbicide (Example 5); type: biochemical, Helianthus annuus; conditions: AHAS of S4897 versus a Clearfield sunflower and a conventional non Clearfield variety; higher concentration of imazamox (FIG. 7)
Experimental: AHAS activity analysis was also conducted by selecting actively growing young leaves from plants that were not sprayed with herbicide at approximately four weeks after planting.

[7] = system: S4897 sunflower plants; assay: Greenhouse spray treatment with imazamox (FIG. 3, 4); type: in vivo, Helianthus annuus; conditions: S4897 versus IMISUN-1 and wild-type; imazamox 100 or 200 g ai/ha; evaluated 17 days after application
Experimental: (§3) The S4897 and IMISUN-1 sunflower plants were spray-treated with imazamox at rate of 200 g ai/ha. […] The photograph was taken a few days after the plants were spray treated.
(§4) FIG. 4 is graphical illustration of herbicide injury in a greenhouse test following the spray treatment of IMISUN-1, wild-type, and S4897 sunflower plants with imazamox at either 100 (light columns) or 200 g ai/ha (dark columns). […] Herbicide injury was evaluated 17 days after the imazamox application.

[8] = system: wild-type sunflower plants; assay: as above; type: in vivo, Helianthus annuus; conditions: wild-type control plants, imazamox at either 100 or 200 g ai/ha
Experimental: as §3, §4

[9] = system: S4897 plants; assay: Field trials in Argentina, resistance to imazapic (Example 4); type: in vivo, Helianthus annuus; conditions: S4897 versus IMISUN-1 (Ala190-to-Val), single row plots, no data presented
Experimental: In field trials in Argentina, S4897 plants were tested for resistance to imazapic. […] This trial had single row plots and was treated on a windy day, so the actual herbicide dose reaching the plants was likely less than was applied.

[10] = Imazamox 300 gm ai/ha (dose received)

Structure (SMILES): COCc1cnc(C2=NC(C)(C(C)C)C(=O)N2)c(C(=O)O)c1 (stereo not shown) [imazamox]
- Injury ([1]; Imazamox 75 gm ai/ha): 4.3 c
- Injury ([1]; Imazamox 150 gm ai/ha): significantly injured and had stopped growing
- Injury ([1]; Imazamox 150 gm ai/ha, listed as Imazamox): 4.6 c
- Injury [1, 10]: 6.5 days
- Injury ([2]; Imazamox 75 gm ai/ha): 1.9 b
- Injury ([2]; Imazamox 150 gm ai/ha): 4.8 c
- Injury [2, 10]: 5.3 c
- Injury ([3]; Imazamox 75 gm ai/ha): 1.8 b
- Injury ([3]; Imazamox 150 gm ai/ha): 2.9 b
- Injury [3, 10]: 4.6 b
- Injury ([4]; Imazamox 75 gm ai/ha): 7.2 days
- Injury ([4]; Imazamox 150 gm ai/ha): 8.2 days
- Injury [4, 10]: 8.7 e
- Injury ([5]; Imazamox 100 gm ai/ha): 0.5 a
- Injury ([5]; Imazamox 200 gm ai/ha): little to no injury
- Injury ([5]; Imazamox 200 gm ai/ha, listed as Imazamox): 0.8 a
- Injury ([5]; Imazamox 300 gm ai/ha): very little injury
- Injury ([5]; Imazamox 300 gm ai/ha, listed as Imazamox): 0.8 a
- inhibition of AHAS activity [6]: less inhibition at the higher concentration of imazamox as compared to a Clearfield® sunflower and conventional non Clearfield variety
- herbicide injury (resistance or tolerance) [7]: significantly greater resistance or tolerance
- survival following spray treatment [8]: did not survive

Structure (SMILES): Cc1cnc(C2=NC(=O)C(C)(C(C)C)N2)c(C(=O)O)c1 (stereo not shown) [imazapic]
- resistance (tolerance) to imazapic [9]: clearly superior to the IMISUN-1
